Data: US20060083738A1, “Treatment of cancer by the use of anti fas antibody” (FUSION ANTIBODIES LIMITED, priority 2002, published 2006)

What was measured:
Format in all cases: cell-based
[1] = tested on: Fas; test: Fas expression in response to 5FU treatment, MCF-7; conditions: MCF-7 breast cancer cell line
Source text: (§1) FIG. 1 illustrates FAS/CD95 expression in response to 5-FU and tomudex (TDX).
(§2) Moreover, procaspase 8 and BID cleavage are not observed in cells treated with either 5PU or anti-Fas monoclonal antibody alone. However, both are activated following co-treatment with 5FU and anti-Fas monoclonal antibody (indicated by loss of full-length procaspase 8 and BID).

[2] = tested on: Fas; test: Fas expression in response to 5FU treatment, HCT116; conditions: HCT116 colorectal cancer cell line
Source text: as §1, §2

[3] = tested on: procaspase 8, BID, c-FLIP, FasL; test: Expression and activation of apoptosis regulating proteins in drug-treated cells
Experimental: FIG. 2 illustrates expression of apoptosis regulating proteins in MCF-7 cells 72 hours after treatment with 10 μM 5-FU or 100 nM TDX.
as §2

[4] = tested on: Fas / FasL interaction; test: Immunoprecipitation of Fas receptor and FasL; conditions: 5FU treatment, FIG. 1B

interaction between receptor (Fas) and ligand (FasL) [4]: up-regulated
SMILES: O=c1[nH]cc(F)c(=O)[nH]1 [5FU, 5-Fluorouracil]
up-regulation of Fas expression [1]: > 10 fold
up-regulation of Fas expression [2]: > 10 fold
FasL expression ([3]; 5FU treatment): unaffected
activation of procaspase 8 or BID ([3]; 5FU-treated MCF-7 and HCT116 cells, FIG. 1A): does not result in activation of procaspase 8 or BID
c-FLIP expression ([3]; 5FU-treated cells or co-treated cells): up-regulated
procaspase 8 and BID cleavage ([3]; single agent or co-treatment, loss of full-length procaspase 8 and BID): not observed
